Results on one compound are retold here after patent US20070020329A1, “Methods of formulating linezolid” (priority 2005, published 2007).

The data set can be described thus: Polymorphic stability of solid linezolid Form IV, alone and in contact with solvents. Type of data set: physicochemical. The source says:
As a consequence, pharmaceutical compositions comprising linezolid Form IV substantially free of linezolid Form II are difficult to prepare.

On to `CC(=O)NC[C@H]1CN(c2ccc(N3CCOCC3)c(F)c2)C(=O)O1` [linezolid Form IV, N-[[(5S)-3-[3-fluoro-4-(4-morpholinyl)phenyl]-2-oxo-5-oxazolidinyl]methyl]acetamide], for which the “conversion of Form IV to Form II (in words)” value (contacted with solvents, in particular ethanol) is “readily transforms to linezolid Form II”. Besides, the “conversion of solid Form IV to Form II (in words)” value (solid, at least 3 months at temperatures between 25 and 40° C.) is “does not convert to linezolid Form II”.
